# Assays:
# ERα receptor = assay: PRα induction assay in MCF7 cells (ERα agonism); type: cell-based; conditions: Homo sapiens, 24 hours, agonist mode, read-out: Relative IC50 (μM), PRα induction
# Method: The purpose of the following PRα induction assay is to determine whether a test compound has agonistic activity against ERα receptor (an agonist would be expected to activate the receptor.)
# Culture MCF7 (purchased from ATCC HTB-22) in DMEM media supplemented with 10% FBS, 0.01 mg/mL human insulin 1 and 1% penicillin/streptomycin antibiotics and plate the cells (prior to becoming 70% confluent) in 384-well flat-bottom plates at a density of 4,000 cells per well in 20 μL volume in DMEM phenol red free media containing 10% FBS (charcoal stripped). Incubate the cells overnight in a cell culture incubator (5% CO2, 95% relative humidity at 37° C.) and allow the cells to attach to the plate. The following day, dose the cells with test compound. Use an Echo 555 acoustic dispenser to prepare compound serial dilutions (1:3) in a range from 6 μM to 0.0003 μM. […]
# The following day, wash cells with PBS 0.05% TWEEN® 20 (2×20 μL) and incubate with secondary antibody (20 μL/well) (1:1000 dilution, Goat anti-rabbit IgM ALEXA FLUOR™ 488) in PBS 1% BSA for 105 minutes at room temperature. […] Scan plates with ACUMEN EXPLORER™ [Laser-scanning fluorescence microplate cytometer manufactured by TTP LABTECH LTD] to measure progesterone receptor alpha. […]
# [1] = Rat oral bioavailability assay; type: in vivo; conditions: plasma, Sprague-Dawley rats, IV 1 mg/kg, PO 10 mg/kg, read-out: oral bioavailability (% F)
# Method: Administer the test compound to Sprague-Dawley rats IV at 1 mg/kg (using vehicles of either: 20% CAPTISOL© in 25 mM sodium phosphate buffer, pH2 quantum satis; or 25% DMA, 15% EtOH, 10% propylene glycol, 25% 2-pyrrolidone, and 25% purified water) and PO at 10 mg/kg (using a vehicle of 1% hydroxyethyl cellulose, 0.25% polysorbate 80, 0.05% Antifoam 1510-US, and purified water quantum satis). Collect serial blood samples at 0.08, 0.25, 0.5, 1, 2, 4, 8, and 12 hours post dose for IV bolus and at 0.25, 0.5, 1, 2, 4, 8, and 12 hours post dose after oral administration. After treatment with an EDTA […], obtain plasma by centrifugation and stored at −70° C. until analysis by LC-MS/MS. Determine the test compound concentration in plasma and upload into the Watson LIMS™ system where noncompartmental analysis is used to calculate Area Under the Curve (AUC) for both IV and PO arms. Calculate oral bioavailability (% F) via the following equation, % F=(AUCPO×DoseIV)/(AUCIV×DosePO)×100.
compound,measurement,setting,value
"O=C(c1ccc(OCCN2CC(CF)C2)cc1)c1c(-c2ccc(C(F)(F)F)cc2F)cnc2cc(O)ccc12 [Example 1, (4-{2-[3-(Fluoromethyl)azetidin-1-yl]ethoxy}phenyl){3-[2-fluoro-4-(trifluoromethyl)phenyl]-7-hydroxyquinolin-4-yl}methanone]",IC50,ERα receptor,> 2 µM
same,bioavailability,[1],27%

# Source: patent US12128040B2, “Selective estrogen receptor degraders” (Eli Lilly and Company, priority 2018, dated 2024)
